Patent publication US10570122B2, “Compounds with anti-tumoral activity” (AB Science, priority 2015, dated 2020)

Experiments:
HL60 = test: CellTiter-Blue cell-based survival/proliferation assay, HL60; conditions: Homo sapiens, HL-60, Leukemia cell line HL60, 48 h, read-out: Anti-tumoral activity (measured IC50) HL60
Experimental: (§1) Cell-Based Proliferation Screening of Compounds
(§2) CellTiter-Blue cell-based survival/proliferation assay (Promega G8080) was performed on tumor cell lines. A total of 1·10^4 cells/well/50 μl were seeded in a 96-wells plate. Treatment was initiated by addition of a 2× drug solution of 1/10 serial dilutions ranging from 0 to 10 μM. Cells were grown for 48 h at 37° C. and then incubated with 10 μl/well of Promega CellTiter-Bleue reagent for 4 h at 37° C. The amount of resorufin dye formed was quantified by its fluorescence emission at 590 nm using a scanning multiwell spectrophotometer (OPTIMA, BMG labtech, France). A blank well without cells was used as a background control for the spectrophotometer.

HUT78 = test: CellTiter-Blue cell-based survival/proliferation assay, HUT78; conditions: Homo sapiens, Lymphoma cell line HUT78, 48 h, read-out: Anti-tumoral activity (measured IC50) HUT78
Experimental: as §1, §2

KARPAS299 = test: CellTiter-Blue cell-based survival/proliferation assay, KARPAS299; conditions: Homo sapiens, KARPAS-299, Lymphoma cell line KARPAS299, 48 h, read-out: Anti-tumoral activity (measured IC50) KARPAS299
Experimental: as §1, §2

REC1 = test: CellTiter-Blue cell-based survival/proliferation assay, REC1; conditions: Homo sapiens, Lymphoma cell line REC1, 48 h, read-out: Anti-tumoral activity (measured IC50) REC1
Experimental: as §1, §2

OPM2 = test: CellTiter-Blue cell-based survival/proliferation assay, OPM2; conditions: Homo sapiens, OPM-2, Myeloma cell line OPM2, 48 h, read-out: Anti-tumoral activity (measured IC50) OPM2
Experimental: as §1, §2

A498 = test: CellTiter-Blue cell-based survival/proliferation assay, A498; conditions: Homo sapiens; A498 kidney tumor cell line, 48 h
Experimental: as §1, §2

A549 = test: CellTiter-Blue cell-based survival/proliferation assay, A549; conditions: Homo sapiens; A549 lung tumor cell line, 48 h
Experimental: as §1, §2

ACHN = test: CellTiter-Blue cell-based survival/proliferation assay, ACHN; conditions: Homo sapiens; ACHN kidney tumor cell line, 48 h
Experimental: as §1, §2

AGS = test: CellTiter-Blue cell-based survival/proliferation assay, AGS; conditions: Homo sapiens; AGS stomach tumor cell line, 48 h
Experimental: as §1, §2

BT20 = test: CellTiter-Blue cell-based survival/proliferation assay, BT20; conditions: Homo sapiens, BT-20; BT20 breast tumor cell line, 48 h
Experimental: as §1, §2

BXPC3 = test: CellTiter-Blue cell-based survival/proliferation assay, BXPC3; conditions: Homo sapiens, BXPC-3; BXPC3 pancreas tumor cell line, 48 h
Experimental: as §1, §2

CALU6 = test: CellTiter-Blue cell-based survival/proliferation assay, CALU6; conditions: Homo sapiens, Calu-6; CALU6 lung tumor cell line, 48 h
Experimental: as §1, §2

CLS354 = test: CellTiter-Blue cell-based survival/proliferation assay, CLS354; conditions: Homo sapiens, CLS-354; CLS354_4 head & neck tumor cell line, 48 h
Experimental: as §1, §2

DLD1 = test: CellTiter-Blue cell-based survival/proliferation assay, DLD1; conditions: Homo sapiens, DLD-1; DLD_1 colorectal tumor cell line, 48 h
Experimental: as §1, §2

DU145 = test: CellTiter-Blue cell-based survival/proliferation assay, DU145; conditions: Homo sapiens, DU-145; DU145 prostate tumor cell line, 48 h
Experimental: as §1, §2

H1299 = test: CellTiter-Blue cell-based survival/proliferation assay, H1299; conditions: Homo sapiens, NCI-H1299; H1299 lung tumor cell line, 48 h
Experimental: as §1, §2

HCT116 = test: CellTiter-Blue cell-based survival/proliferation assay, HCT116; conditions: Homo sapiens, HCT-116; HCT116 colorectal tumor cell line, 48 h
Experimental: as §1, §2

HEP2 = test: CellTiter-Blue cell-based survival/proliferation assay, HEP2; conditions: Homo sapiens, HEp-2; HEP2 head & neck tumor cell line, 48 h
Experimental: as §1, §2

HEPG2 = test: CellTiter-Blue cell-based survival/proliferation assay, HEPG2; conditions: Homo sapiens; HEPG2 liver tumor cell line, 48 h
Experimental: as §1, §2

HGC27 = test: CellTiter-Blue cell-based survival/proliferation assay, HGC27; conditions: Homo sapiens, HGC-27; HGC27 stomach tumor cell line, 48 h
Experimental: as §1, §2

MDAMB231 = test: CellTiter-Blue cell-based survival/proliferation assay, MDAMB231; conditions: Homo sapiens, MDA-MB-231; MDAMB231 breast tumor cell line, 48 h
Experimental: as §1, §2

MESSA = test: CellTiter-Blue cell-based survival/proliferation assay, MESSA; conditions: Homo sapiens, MES-SA; MESSA ovary tumor cell line, 48 h
Experimental: as §1, §2

PANC1 = test: CellTiter-Blue cell-based survival/proliferation assay, PANC1; conditions: Homo sapiens, PANC-1; PANC_1 pancreas tumor cell line, 48 h
Experimental: as §1, §2

PC3 = test: CellTiter-Blue cell-based survival/proliferation assay, PC3; conditions: Homo sapiens, PC-3; PC3 prostate tumor cell line, 48 h
Experimental: as §1, §2

PLCPRF5 = test: CellTiter-Blue cell-based survival/proliferation assay, PLCPRF5; conditions: Homo sapiens, PLC-PRF-5; PLC_PRF5 liver tumor cell line, 48 h
Experimental: as §1, §2

SW579 = test: CellTiter-Blue cell-based survival/proliferation assay, SW579; conditions: Homo sapiens; SW579 head & neck tumor cell line, 48 h
Experimental: as §1, §2

TOV112D = test: CellTiter-Blue cell-based survival/proliferation assay, TOV112D; conditions: Homo sapiens; TOV112D ovary tumor cell line, 48 h
Experimental: as §1, §2

[1] = tested on: panel of about 34 human tumor cell lines; test: Cell-based proliferation screening on panel of tumor cell lines; conditions: solid tumor cell line, cell line unknown, 48 h, read-out: IC50, solid tumor cell line of column 6 (last section of Table 3)
Experimental: Compounds of formula (I) were tested against a panel of about 34 human tumor cell lines representing 17 cancer type, namely leukemia (represented by 1 cell line), lymphoma (4 cell lines), myeloma (1 cell line), colorectal (2 cell lines), head and neck (3 cell lines), lung (3 cell lines), melanoma (2 cell lines), pancreas (2 cell lines), prostate (2 cell lines), ovary (2 cell lines) breast (2 cell lines), kidney (2 cell lines), stomach (2 cell lines), liver (2 cell lines), glioblastoma (2 cell lines), osteosarcoma (1 cell line), Ewing Sarcoma (1 cell line).
as §1, §2

Structure (SMILES) | IC50 (HL60) [µM] | IC50 (OPM2) [µM] | IC50 (A498) [µM] | IC50 (A549) [µM] | IC50 (ACHN) [µM] | IC50 (AGS) [µM] | IC50 (BT20) [µM] | IC50 (BXPC3) [µM] | IC50 (CALU6) [µM] | IC50 (CLS354) [µM] | IC50 (DLD1) [µM] | IC50 (DU145) [µM] | IC50 (H1299) [µM] | IC50 (HCT116) [µM] | IC50 (HEP2) [µM] | IC50 (HEPG2) [µM] | IC50 (HGC27) [µM] | IC50 (MDAMB231) [µM] | IC50 (MESSA) [µM] | IC50 (PANC1) [µM] | further results
CCOCc1cccc(Nc2ncc(-c3ccc(-n4cccn4)cc3)o2)c1 [Example 020, (3-Ethoxymethyl-phenyl)-[5-(4-pyrazol-1-yl-phenyl)-oxazol-2-yl]-amine] | ≤ 0.1 | ≤ 0.1 | > 1 | > 1 | > 1 | > 1 | > 1 | 0.5 to 1 | > 1 | ≤ 0.1 | 0.1 to 0.5 | > 1 | > 1 | > 1 | > 1 | > 1 | > 1 | 0.1 to 0.5 | > 1 | > 1 | IC50 (HUT78): ≤ 0.1 µM; IC50 (KARPAS299): ≤ 0.1 µM; IC50 (REC1): ≤ 0.1 µM; IC50 (PC3): ≤ 0.1 µM; IC50 (PLCPRF5): > 1 µM; IC50 (SW579): > 1 µM; IC50 (TOV112D): > 1 µM; IC50 [1]: ≤ 0.1 µM
CCOCc1cc(C)cc(Nc2ncc(-c3ccc(-n4cccn4)cc3)o2)c1 [Example 021, (3-Ethoxymethyl-5-methyl-phenyl)-[5-(4-pyrazol-1-yl-phenyl)-oxazol-2-yl]-amine] | 0.1 to 0.5 | 0.1 to 0.5 | > 1 | > 1 | > 1 | > 1 | > 1 | > 1 | > 1 | 0.1 to 0.5 | 0.5 to 1 | > 1 | > 1 | > 1 | > 1 | > 1 | > 1 | > 1 | > 1 | > 1 | IC50 (HUT78): 0.5 to 1 µM; IC50 (KARPAS299): 0.1 to 0.5 µM; IC50 (REC1): 0.1 to 0.5 µM; IC50 (PC3): 0.5 to 1 µM; IC50 (PLCPRF5): > 1 µM; IC50 (SW579): > 1 µM; IC50 (TOV112D): > 1 µM; IC50 [1]: 0.1 to 0.5 µM
CCOCc1cc(Nc2ncc(-c3ccc(N4CCNC4=O)cc3)o2)cc(OCCO)c1 [Example 059, 1-(4-(2-((3-(ethoxymethyl)-5-(2-hydroxyethoxy)phenyl)amino)oxazol-5-yl)phenyl)imidazolidin-2-one] | ≤ 0.1 | ≤ 0.1 | > 1 | > 1 | > 1 | > 1 | > 1 | 0.5 to 1 | > 1 | ≤ 0.1 | > 1 | > 1 | > 1 | ≤ 0.1 | ≤ 0.1 | > 1 | > 1 | > 1 | > 1 | > 1 | IC50 (PC3): ≤ 0.1 µM; IC50 (PLCPRF5): > 1 µM; IC50 (SW579): ≤ 0.1 µM; IC50 (TOV112D): ≤ 0.1 µM; IC50 [1]: ≤ 0.1 µM
CCOCc1ccc(C)c(Nc2ncc(-c3ccc(-c4cn[nH]c4)cc3)o2)c1 [Example 060, 5-(4-(1H-pyrazol-4-yl)phenyl)-N-(5-(ethoxymethyl)-2-methylphenyl)oxazol-2-amine] | 0.5 to 1 | 0.5 to 1 | > 1 | > 1 | > 1 | > 1 | > 1 | > 1 | > 1 | > 1 | > 1 | > 1 | > 1 | > 1 | > 1 | > 1 | > 1 | > 1 | > 1 | > 1 | IC50 (PC3): > 1 µM; IC50 (PLCPRF5): > 1 µM; IC50 (SW579): > 1 µM; IC50 (TOV112D): > 1 µM; IC50 [1]: > 1 µM
CCOCc1ccc(C)c(Nc2ncc(-c3ccc(-c4ccnn4C)cc3)o2)c1 [Example 061, N-(5-(ethoxymethyl)-2-methylphenyl)-5-(4-(1-methyl-1H-pyrazol-5-yl)phenyl)oxazol-2-amine] | > 1 | > 1 | > 1 | > 1 | > 1 | > 1 | > 1 | > 1 | > 1 | > 1 | > 1 | > 1 | > 1 | > 1 | > 1 | > 1 | > 1 | > 1 | > 1 | > 1 | IC50 (PC3): > 1 µM; IC50 (PLCPRF5): > 1 µM; IC50 (SW579): > 1 µM; IC50 (TOV112D): > 1 µM; IC50 [1]: > 1 µM
